Measurements from patent publication US6228886A, “Nutritional formulations containing water-miscible lipid derivatives as antibacterial agents” (Abbott Laboratories, priority 2000, dated 2001).

Assays:
RSV [1] = test: In vivo prevention of RSV infection in cotton rats; conditions: 1000 mg/L Carrageenan in M. Similac®
Excerpt: Cotton rats have been used as an RSV research animal model for about 20 years. The cotton rat has a similar pathological change in the lung to that observed in human infants when infected by RSV (Prince et al., 1978). […] It has also been observed that the intravenously-administered RSV-IgG has to reach a titer of ≥1:100 concentration to show the preventive effect (Prince et al., 1985). The same serum concentration of RSV-IgG in human infants is protective (Groothuis et al., 1993, 1995). Due to these similarities, the FDA has recommended the cotton rat as an appropriate model for RSV studies.
To have a repeatable RSV nasal and lung infection, a high RSV dose (10^4 pfu/animal) was intra-nasally inoculated to all animals. The inoculum (100 μl) consisted of 50 μl of RSV stock solution and 50 μl of test product. […] In addition, some studies were performed in an infant formula in which the intact protein was replaced with a casein hydrolysate (Alimentum®). All animals consumed the regular rodent chow diet throughout the experimental period. Four days after RSV challenge, all animals were sacrificed. Their lung and nasal tissue were isolated for determination of RSV titers. As a positive control, a 5% RSV-IgG was always used. […]

RSV [2] = conditions: carrageenan removed from the formulation; cited from earlier work

Q: Which “RSV titer in Lung” value (RSV [1]) does the source give for Carrageenan here?
A: 3.06 ± 0.16 Log10 PFU/g tissue

Q: What about the “RSV titer in Nose” value (RSV [1]) of the same substance?
A: 3.78 ± 0.47 Log10 PFU/g tissue

Q: What about the “anti-RSV activity, previously found” value (RSV [2]) of the same substance?
A: anti-RSV activity
